Literature values in US20080032891A1, “DEFOLIANT COMPOSITION AND METHOD” (ARYSTA L[…] AMERICA CORPORATION, priority 2006, published 2008).

## O=C(Nc1ccccc1)Nc1cnns1 [Thidiazuron, 1-phenyl-3-(1,2,3-thiadiazol-5-yl)-urea]
  solubility in water: insoluble in water

## CN(C)C(=O)Nc1ccc(Cl)c(Cl)c1 [diuron, 3-(3,4-dichlorophenyl)-1,1-dimethylurea]
  solubility in water: insoluble in water
